In paper PMC2953536 (Angewandte Chemie (International ed. in English), 2010):

How the values were obtained:
MMP-9 = MMP-9 (Homo sapiens, UniProt P14780); assay: Fluorescence-based MMP inhibition assay, MMP-9; assay type: biochemical; settings: inhibitor, MMP-9, fluorescence based assay, average of two experiments
MMP-12 = MMP-12 (Homo sapiens, UniProt P39900); assay: Fluorescence-based MMP inhibition assay, MMP-12; assay type: biochemical; settings: MMP-12, fluorescence based assay, average of two experiments
Chain of MMP-12 (P39900 106-470, species assumed): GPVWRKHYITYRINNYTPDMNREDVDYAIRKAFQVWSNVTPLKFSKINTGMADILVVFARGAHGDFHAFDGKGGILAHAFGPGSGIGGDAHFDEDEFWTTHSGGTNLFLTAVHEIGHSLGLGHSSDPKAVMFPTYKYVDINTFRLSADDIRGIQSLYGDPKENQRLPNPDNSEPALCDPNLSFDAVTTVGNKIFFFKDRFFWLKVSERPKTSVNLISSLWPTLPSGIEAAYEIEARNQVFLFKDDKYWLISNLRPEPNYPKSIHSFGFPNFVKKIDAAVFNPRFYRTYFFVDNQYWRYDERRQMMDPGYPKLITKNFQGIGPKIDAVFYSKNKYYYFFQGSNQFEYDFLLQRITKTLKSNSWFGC

Chain of MMP-9 (P14780 94-707, species assumed): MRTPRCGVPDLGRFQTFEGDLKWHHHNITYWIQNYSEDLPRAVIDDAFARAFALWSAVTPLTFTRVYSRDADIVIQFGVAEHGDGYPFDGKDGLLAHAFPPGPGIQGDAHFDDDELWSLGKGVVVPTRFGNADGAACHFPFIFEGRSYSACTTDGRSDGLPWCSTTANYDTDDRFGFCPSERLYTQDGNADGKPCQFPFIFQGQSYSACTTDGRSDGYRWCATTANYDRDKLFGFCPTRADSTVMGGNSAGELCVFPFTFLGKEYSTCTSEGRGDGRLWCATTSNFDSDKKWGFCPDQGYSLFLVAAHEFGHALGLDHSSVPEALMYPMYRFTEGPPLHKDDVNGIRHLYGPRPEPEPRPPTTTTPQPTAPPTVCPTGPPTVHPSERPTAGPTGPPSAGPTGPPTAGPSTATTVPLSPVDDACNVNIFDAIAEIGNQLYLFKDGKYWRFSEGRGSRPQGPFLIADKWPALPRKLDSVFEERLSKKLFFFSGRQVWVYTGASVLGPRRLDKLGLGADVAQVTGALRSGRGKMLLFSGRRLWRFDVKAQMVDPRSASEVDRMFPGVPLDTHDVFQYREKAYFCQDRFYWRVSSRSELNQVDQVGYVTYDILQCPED

## O=C(NCc1ccc(-c2ccccc2)cc1)c1cccc(=O)n1O [1,2-HOPO-2]
MMP-9
  IC50: 6.1 µM
MMP-12
  IC50: 0.053 µM
